What all share (type): cell-based
The test system of test [1] is a variety of tumor cell types. In words: In vitro antiproliferation assays against a variety of tumor cell types (stereoisomer comparison). The note with it: for Inhibition of proliferation of a variety of tumor cell lines: in words. As to the method:
Moreover, it has been discovered that the enantiomer corresponding to the (1R,2R,3S,4S) diastereomer of structural formula (IVa) is largely responsible for the potency of the exo-exo cis racemate.
(§1) Certain compounds were tested against other cell types for their ability to inhibit proliferation in standard antiproliferation assays.

The test system of test [2] is H1299 (non-small cell lung carcinoma). In words: In vitro antiproliferation assay, H1299 cells (TABLE 1 6 point assay; TABLE 2). The method, then:
as §1

The test system of a further test is H7299. The test is described as follows: In vitro antiproliferation assay, H7299 cells. The method, then:
as §1

Another test deals with A549 (lung carcinoma). The test is described as follows: In vitro antiproliferation assay, A549 cells (TABLE 1 6 point assay; TABLE 2). As to the method: as §1
Test [3] has as its system U937 (histiocytic lymphoma). The test is described as follows: In vitro antiproliferation assay, U937 cells. The note with it: Homo sapiens, U-937. The method, then: as §1
Test [4] deals with SW620 (colorectal adenocarcinoma). The test is described as follows: In vitro antiproliferation assay, SW620 cells. The note with it: Homo sapiens, SW-620. The method, then: as §1
The test system of test [5] is MOLT4 (T lymphoblast acute lymphoblastic leukemia). The test is described as follows: In vitro antiproliferation assay, MOLT4 cells. The note with it: Homo sapiens, MOLT-4. The method, then:
as §1

Test [6] concerns HL160 (promyeloblast promyelocytic leukemia). In words: In vitro antiproliferation assay, HL160 cells. As to the method: as §1
Test [7] deals with COLO 205 (colorectal adenocarcinoma). In words: In vitro antiproliferation assay, COLO 205 cells. The note with it: Homo sapiens, COLO 205; Colo205. The method, then: as §1
In test [8] the test system is THP-1 (monocyte acute monocytic leukemia). In words: In vitro antiproliferation assay, THP-1 cells. To be noted: Homo sapiens. The method, then:
as §1

Test [9] concerns K562 (bone marrow chronic myelogenous leukemia). In words: In vitro antiproliferation assay, K562 cells. To be noted: Homo sapiens. As to the method: as §1
The subject of test [10] is L1210 (mouse lymphocytic leukemia). The test is described as follows: In vitro antiproliferation assay, L1210 cells. The note with it: Mus musculus. The method, then:
as §1

In test [11] the test system is MOLT3 (T lymphoblast acute lymphoblastic leukemia). The test is described as follows: In vitro antiproliferation assay, MOLT3 cells. The note with it: Homo sapiens, MOLT-3. As to the method:
as §1

Test [12] concerns MiaPaCa-2 (pancreatic carcinoma). In words: In vitro antiproliferation assay, MiaPaCa-2 cells. To be noted: Homo sapiens, MIA PaCa-2; Miapaca2; read-out: In Vitro IC50. As to the method:
Cis racemic Compound 15, (1S,2R) enantiomeric Compound 15a and […] enantiomeric Compound 15b were also tested against DU145 (prostate carcinoma), HCT116 (colorectal carcinoma) and MiaPaCa-2 (pancreatic carcinoma) cell lines.
as §1

[13] abbreviates: 6 point assay, H1299 cells, read-out: IC50, H1299 cells.
Where [14] appears, read: 6 point assay, A549 cells, read-out: IC50, A549 cells.
[15] abbreviates: Homo sapiens, NCI-H1299, 6 point assay, H1299 cells, read-out: IC50, H1299 cells.
Where [16] appears, read: Homo sapiens, A549, 6 point assay, A549 cells, read-out: IC50, A549 cells.

Counter-ions that a name gives are not always drawn. Like-named read-outs stand apart in the source and are kept apart here.

Consider `Cc1cc(Nc2ncc(F)c(NC3CCCC3C(N)=O)n2)ccc1N1CCN(C)CC1` [cis (1R,2S), N4-(2-aminocarbonylcyclopent-1-yl)-5-fluoro-N2-[4-(4-methylpiperazin-1-yl)-3-methylphenyl]-2,4-pyrimidinediamine], for which, in test [1], the “Inhibition of proliferation of a variety of tumor cell lines” value (from here on “Inhibition”) is “inhibit the proliferation”.

Turning to `Cc1cc(Nc2ncc(F)c(NC3CCCC3C(N)=O)n2)ccc1N1CCN(C)CC1` [cis (1S,2R), N4-(2-aminocarbonylcyclopent-1-yl)-5-fluoro-N2-[4-(4-methylpiperazin-1-yl)-3-methylphenyl]-2,4-pyrimidinediamine], the “Inhibition” value in [1] is on record as “inhibit the proliferation”.

Consider `Cc1cc(Nc2ncc(F)c(NC3CCCC3C(N)=O)n2)ccc1N1CCN(C)CC1` [trans (1S,2S) diastereomer, N4-(2-aminocarbonylcyclopent-1-yl)-5-fluoro-N2-[4-(4-methylpiperazin-1-yl)-3-methylphenyl]-2,4-pyrimidinediamine], for which the “Inhibition” value in test [1] is “relatively inactive”.

For the molecule `Cc1cc(Nc2ncc(F)c(NC3C4C=CC(C4)C3C(N)=O)n2)ccc1N1CCN(C)CC1` (racemic) [Compound 228, Racemic N4-(3-Aminocarbonylbicyclo[2.2.1]hept-5-en-2-yl)-5-fluoro-N2-[3-methyl-4-(4-methylpiperazin-1-yl)phenyl]-2,4-pyrimidinediamine Hydrogen Chloride Salt], the IC50 in test [2] (setting [13]) is not above 0.1 µM; in test [2] (H1299, read-out: In Vitro IC50), not above 1 µM; with H7299, not above 1 µM; in the test on A549 (lung carcinoma) (setting [14]), not above 0.1 µM; in the test with A549 (lung carcinoma) (A549, read-out: In Vitro IC50) it was not above 1 µM.

Regarding `Cc1cc(Nc2ncc(F)c(NC3C4C=CC(C4)C3C(N)=O)n2)ccc1N1CCN(C)CC1` (racemic) [cis exo-exo racemate, N4-(3-aminocarbonylbicyclo[2.2.1]hept-5-en-2-yl)-5-fluoro-N2-[3-methyl-4-(4-methylpiperazin-1-yl)phenyl]-2,4-pyrimidinediamine], the “Potency relative to the cis endo-endo racemate” value in test [1] (cis exo-exo racemate, all cell lines tested) is “approximately twenty-fold more potent”.

Regarding `Cc1cc(Nc2ncc(F)c(N[C@@H]3CCC[C@@H]3C(N)=O)n2)ccc1N1CCN(C)CC1` [compound 222, (1R,2S)-N4-(2-Aminocarbonylcyclopent-1-yl)-5-fluoro-N2-[3-methyl-4-(4-methylpiperazin-1-yl)phenyl]-2,4-pyrimidinediamine Bis Hydrogen Chloride Salt], the IC50 in [3] is not above 1 µM; in test [4], not above 1 µM; in test [5], not above 1 µM; in [6], not above 1 µM; in test [7], not above 1 µM; in test [2] (setting [13]), 0.1 to 1 µM. The IC50 in test [2] (Homo sapiens, NCI-H1299, H1299, read-out: In Vitro IC50) is not above 1 µM; in test [8], not above 1 µM; with A549 (lung carcinoma) (setting [14]), 0.1 to 1 µM; in the test on A549 (lung carcinoma) (Homo sapiens, A549, A549, read-out: In Vitro IC50), not above 1 µM; in [9] it was more than 1 µM; in [10], not above 1 µM. Moreover, the IC50 in test [11] and in test [12] was not above 1 µM in each case.

In the case of `Cc1cc(Nc2ncc(F)c(NC3CCCC3C(N)=O)n2)ccc1N1CCN(C)CC1` [trans (1R,2R) diastereomer, N4-(2-aminocarbonylcyclopent-1-yl)-5-fluoro-N2-[4-(4-methylpiperazin-1-yl)-3-methylphenyl]-2,4-pyrimidinediamine], the “Inhibition” value in test [1] is given as “inhibit the proliferation”.

In the case of `Cc1cc(Nc2ncc(F)c(NC3C4C=CC(C4)C3C(N)=O)n2)ccc1N1CCN(C)CC1` [(1S,2S,3R,4R) diastereomer, N4-(3-aminocarbonylbicyclo[2.2.1]hept-5-en-2-yl)-5-fluoro-N2-[3-methyl-4-(4-methylpiperazin-1-yl)phenyl]-2,4-pyrimidinediamine], the “IC50s when tested as isolated stereoisomers” value in [1] (range in words, same cell lines) is “micromolar range”.

Consider `Cc1cc(Nc2ncc(F)c(NC3C4C=CC(C4)C3C(N)=O)n2)ccc1N1CCN(C)CC1` (racemic) [Compound 60r2, Racemic-(2-endo,3-endo)-N4-(3-aminocarbonylbicyclo[2.2.1]hept-5-en-2-yl)-5-fluoro-N2-[3-methyl-4-(4-methylpiperazin-1-yl)phenyl]-2,4-pyrimidinediamine], for which the IC50 in test [2] (setting [13]) is 0.1 to 1 µM; in the test on H7299, not above 1 µM; in the test with A549 (lung carcinoma) (setting [14]) it was 0.1 to 1 µM; in the test on A549 (lung carcinoma) (A549, read-out: In Vitro IC50), not above 1 µM.

Consider `CN1CCC(c2cccc(Nc3ncc(F)c(N[C@H]4[C@@H](C(N)=O)[C@@H]5C=C[C@H]4C5)n3)c2)CC1` [compound 275, (1R,2R,3S,4S)-N4-(3-Aminocarbonylbicyclo[2.2.1]hept-5-en-2-yl)-5-fluoro-N2-[3-(1-methylpiperidin-4-yl)phenyl]-2,4-pyrimidinediamine], for which the IC50 (in [2] (setting [15]); with A549 (lung carcinoma) (setting [16])) was not above 0.1 µM in each case.

As for `Cc1cc(Nc2ncc(F)c(NC3C4C=CC(C4)C3C(N)=O)n2)ccc1N1CCN(CCO)CC1` (racemic) [compound 111], the IC50 in test [2] (Homo sapiens, NCI-H1299, H1299 cells, 6 point assay, read-out: H1299, 6pt (IC50, inhibition of proliferation)) is not above 0.1 µM; in the test on A549 (lung carcinoma) (Homo sapiens, A549, A549 cells, 6 point assay, read-out: A549, 6pt (IC50, inhibition of proliferation)) it was not above 0.1 µM.

As to `Cc1cc(Nc2ncc(F)c(N[C@H]3CCCC[C@H]3C(N)=O)n2)ccc1N1CCN(C)CC1` (racemic) [compound 223, Racemic-cis-N4-(2-aminocarbonylcyclohex-1-yl)-5-fluoro-N2-[3-methyl-4-(4-methylpiperazin-1-yl)phenyl]-2,4-pyrimidinediamine], the figures for the IC50 (in [2] (setting [15]); in the test with A549 (lung carcinoma) (setting [14])) were 1 to 10 µM and 0.1 to 1 µM, respectively.

In the case of `COCc1cc(Nc2ncc(F)c(NC3C4C=CC(C4)C3C(N)=O)n2)ccc1N1CCN(C)CC1` (racemic) [compound 235, Racemic-(2-exo,3-exo)-N4-(3-aminocarbonylbicyclo[2.2.1]hept-5-en-2-yl)-5-fluoro-N2-[3-methoxymethyl-4-(4-methylpiperazin-1-yl)phenyl)-2,4-pyrimidinediamine], the IC50 (in test [2] (setting [15]); in the test on A549 (lung carcinoma) (setting [16])) was not above 0.1 µM each time.

For `COC(=O)[C@@H]1CC[C@H](Nc2nc(Nc3ccc(N4CCN(C)CC4)c(C)c3)ncc2F)C1` [compound 215, (1S,3R)-N4-(3-Methoxycarbonylcyclopent-1-yl)-5-fluoro-N2-[3-methyl-4-(4-methylpiperazin-1-yl)phenyl]-2,4-pyrimidinediamine], the IC50 (in [2] (setting [15]); in the test on A549 (lung carcinoma) (setting [16])) was 1 to 10 µM throughout.

The record behind these values is patent publication US7868013B2, “Cycloalkyl substituted pyrimidinediamine compounds and their uses” (Rigel Pharmaceuticals, Inc., priority 2004, dated 2011).
